Data from patent US12508313B2, “Quinoline derivative-containing pharmaceutical composition” (Eisai R&D Management Co., Ltd., priority 2009, dated 2025).

Assay: Storage stability of capsules, degradants determined by high-performance liquid chromatography
Format: physicochemical
Conditions: Initial (before storage); HPLC
Procedure: The capsules in Examples 16 to 17 and Comparative Example 6 were stored for 1 week in an open system under an environment at a temperature of 60° C. and a relative humidity of 75%, followed by determining the production of the degradants with high-performance liquid chromatography. In the capsule formulation in Comparative Example 6, in which neither calcium carbonate nor magnesium carbonate was mixed, an amount of the degradants was increased. In contrast, in the capsules in Examples 16 to 17, in which calcium carbonate or magnesium carbonate was mixed, no increase in amount of the degradants was observed (Table 8).

In the case of COc1cc2nccc(Oc3ccc(NC(=O)NC4CC4)c(Cl)c3)c2cc1C(N)=O.CS(=O)(=O)O [Compound A, 4-(3-chloro-4-(cyclopropylaminocarbonyl)aminophenoxy)-7-methoxy-6-quinolinecarboxamide methanesulfonate], the “Quantitated compound A (%)” value is reported as 98.38%.
